Here are results for one compound from patent US10150793B2, “Antagonists of CB1 receptor” (INSERM (Institut National de la Santé et de la Recherche …, priority 2011, dated 2018).

The nature of series [1]: Allopregnanolone and epiallopregnanolone in nucleus accumbens after high dose injection (GC/MS). Format: in vivo, Wistar rats. The note with it: 50 mg/kg; 30 min after the injections. How it is done: The capacity of a compound of the invention to be or not to be converted into active pregnenolone downstream derivatives may be evaluated by administering this compound, for example by injecting 50 mg/kg, to a rat, sacrificing the rat 30 min later, measuring the concentration of allopregnanolone and epiallopregnanolone in nucleus accumbens of rat by GC/MS and comparing these concentrations to allopregnanolone and epiallopregnanolone in a rat whose has been injected only a vehicle or pregnenolone.
The concentrations of allopregnanolone and epiallopregnanolone were measured in nucleus accumbens of individual animal by GC/MS 30 min after the injections.

Series [2] can be described thus: Elevated plus maze, anxiety-like behaviors. The note with it: sc, 30 min before test; pregnenolone 1, 6, 10 mg/kg; rimonabant 10 mg/kg. The format is in vivo, mice. The protocol: The elevated plus maze was made by a central platform (10×10 cm) from which departed 4 arms (45×10 cm) at a 90° angle from each other. Two opposite arms, named closed arms had peripheral wall 50 cm high. The two other arms, named open arms had no walls. The maze was suspended at 66 cm from the floor of the room and was brightly lighted (120 lux). The testing consisted in placing the animal in the central platform and the number of entry and the time spent in each compartment of the maze recorded for 5 min. The number of entry and time spent in the open arms are considered and index of anxiety-like behaviors, whilst the total number of entry are and index of locomotor activity.
One of the major side effects of orthosteric antagonists of the CB1 is the induction of behavioral side effect and in particular an axiodepressive state. […] This test has been chosen because an increase in anxiety was the principal undesirable side effect of this compound in humans.

The subject of a further series is dopaminergic neurons. Nature of the series: Coupled in vivo microdialysis and electrophysiology: VTA dopaminergic neuron firing and dopamine outflow in nucleus accumbens. On the set-up: species or system rats. How it is done: Surgery and perfusion procedure were performed to allow concomitant electrophysiological and microdialysis monitoring. Briefly, rats were anesthetized using a 2% mixture of isoflurane/air, and a catheter was inserted into the femoral vein for intravenous drug administration. Thereafter, animals were placed in a stereotaxic frame (David Kopf Instruments, Phymep, Paris, France) equipped with a nose mask for constant delivery of the gas anesthesia (2% isoflurane during surgery, 1.5% isoflurane during electrophysiology and microdialysis experiment), and their rectal temperature was monitored and maintained at 37±1° C. by a heating pad (CMA 150, Carnégie Medecin, Phymep). […]
Single unit recording of DA neuronal firing and monitoring of DA extracellular levels were started 2 h after the beginning of probe perfusion (stabilization period). Dialysates (30 μL) were collected on ice every 15 min, and immediately analyzed to determine the baseline values of DA extracellular levels, defined by three consecutive samples in which DA content varied by less than 10% (9). […] DA neuron firing rate was recorded for 3-5 min to obtain the firing baseline, defined by a variation of less than 10% of the average frequency discharge of the DA neuron. […]
In this example the inventors further analyzed the ability of pregnenolone to inhibit the effects of CB1 activation. […]

Another series deals with CHO cells. Nature of the series: Study of metabolism in vitro in CHO cells, steroids in culture medium by GC/MS. In outline: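 CHO-K1 cells were seeded at 25×10^4 cells/well in antibiotic-free DMEM-Glutamax with 10% FBS to assess metabolism of pregnenolone derivatives. Pregnenolone, allopregnanolone, epiallopregnanolone, testosterone and 5α-dihydrotestosterone in culture medium were extracted, purified and quantified by GC/MS.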

The mark [3] stands for this setting: culture medium of treated CHO cells, 0 = concentrations below the detection limit.
The mark [4] stands for this setting: culture medium, pregnenolone 1 μM, 48 hours.

As for `CC(=O)[C@H]1CC[C@H]2[C@@H]3CC=C4C[C@@H](O)CC[C@]4(C)[C@H]3CC[C@]12C` [Pregnenolone, 5-Pregnen-3β-ol-20-one], in series [1], the “production of allopregnanolone and epiallopregnanolone in nucleus accumbens” value is “allopregnanolone and epiallopregnanolone increased”. The “anxiety-like behavior (entries and time spent in open arms)” value in series [2] is given as “induced no increase in anxiety”. Moreover, in the series on dopaminergic neurons (pregnenolone 2 mg/kg sc 30 min before cocaine 0.0125 to 0.8 mg/kg iv cumulative), the “effect on cocaine-induced increase in activity of the dopaminergic system” value was “able to antagonize the increase in activity of the dopaminergic system”. Further, in the series with dopaminergic neurons (sc 30 min prior to THC 0.15 to 1.2 mg/kg iv cumulative), the “effect on THC-induced increase in dopamine release and dopaminergic neuron activity” value was “strongly blunted the increase in dopamine release and in the activity of the dopaminergic neurons”. In the series on CHO cells (setting [3]), the DHEA was found to be 0.00 pg/mL and the TESTO was 0.00 pg/mL. In the series with CHO cells (setting [4]), this compound had an ALLO steroid levels of 3529.99 pg/mL, an EPIALLO steroid levels of 16963.84 pg/mL, a PREG steroid levels of 11440.66 pg/mL and a THDOC steroid levels of 77.47 pg/mL.
